Twelve molecules from ChEMBL document CHEMBL1201862, “PubChem BioAssay data set” (2004) can be followed below.

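Cultured in 96-well plates, cells were exposed to test compound for 48 hours across five concentrations. The concentration for 50% growth inhibition is given as GI50.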 The source made the active and inactive calls. Rule as the data show it: active = GI50 up to about 1.1 µM and inactive = higher.

Common to all, as to experiment: DTP human tumour cell line panel, 48 h
Assay [1] concerns NCI/ADR-RES.
Assay [2] concerns NCI-H522.
Assay [3] deals with ACHN.
In assay [4] the test system is SF-539.
Assay [5] deals with MDA-MB-231.
The subject of assay [6] is HCC 2998.
Assay [7] deals with DU-145.
The subject of assay [8] is HOP-62.
For assay [9], the system named is A549.
Assay [10] deals with MDA-N.
The test system of assay [11] is T47D.
The test system of assay [12] is NCI-H460.
In assay [13] the test system is NCI-H226.
Assay [14] deals with SNB-75.
The test system of assay [15] is LOX IMVI.
In assay [16] the test system is CCRF-CEM.
The test system of assay [17] is NCI-H23.
Assay [18] relates to OVCAR-8.
In assay [19] the test system is EKVX.

With `c1ccc(/N=C2\SC(=NNc3ccccc3)S\C2=N/c2ccccc2)cc1`, the GI50 in [1] is 40.5 µM (inactive); in assay [2], 15.3 µM (inactive); in assay [3], > 100 µM (inactive); in assay [4] it was 62.5 µM (inactive); in [5] it was > 100 µM (inactive); in assay [6], 37.8 µM (inactive). Moreover, the GI50 in [7] is 62.2 µM (inactive); in assay [8], 44.5 µM (inactive); in assay [9] it was 25.2 µM (inactive); in assay [10], 77.6 µM (inactive); in assay [11] it was 74.1 µM (inactive); in assay [12] it was 15.5 µM (inactive). Moreover, the GI50 was 48.1 µM (inactive) in assay [13]; 85.7 µM (inactive) in [14]; 13 µM (inactive) in [15]; > 100 µM (inactive) in [16]; > 100 µM (inactive) in assay [17]; > 100 µM (inactive) in [18]. In [19], the GI50 was > 100 µM (inactive).

Turning to `CC(=O)OC12COC1CC(O)C1(C)C(=O)C(O)C3=C(C)C(O)CC(O)(C(OC(=O)c4ccccc4)C21)C3(C)C` (stereo not drawn), the GI50 was > 100 µM (inactive) in assay [1]; 0.638 µM (active) in [2]; 90.2 µM (inactive) in assay [3]; 1.16 µM (inactive) in assay [4]; 7.91 µM (inactive) in assay [5]; 4.08 µM (inactive) in assay [6]. Further, the GI50 in [7] was 8.43 µM (inactive); in [8], 16.6 µM (inactive); in assay [9] it was 7.33 µM (inactive); in assay [12], 2.92 µM (inactive); in assay [13], 6.01 µM (inactive); in assay [14], 1.75 µM (inactive). Further, the GI50 was 1.82 µM (inactive) in assay [15]; 3.8 µM (inactive) in assay [16]; 3.36 µM (inactive) in assay [17]; 6.98 µM (inactive) in assay [18]; > 86.5 µM (inactive) in [19].

For `COc1ccc(N2C(=O)/C(=C(\C)c3cc4ccccc4oc3=O)N=C2c2cc([N+](=O)[O-])ccc2Cl)cc1`, the GI50 in assay [2] is 11.5 µM (inactive); in [3], 32.1 µM (inactive); in [4], 29.9 µM (inactive); in assay [6], 43.5 µM (inactive); in assay [8], > 100 µM (inactive); in assay [9], 34.9 µM (inactive). Also, the GI50 was 41.9 µM (inactive) in [12]; > 100 µM (inactive) in [13]; 33.3 µM (inactive) in [14]; 34.5 µM (inactive) in [15]; 32.5 µM (inactive) in assay [16]; 11.2 µM (inactive) in assay [17]. The GI50 in [18] and in assay [19] was > 100 µM (inactive) each time.

For the molecule `CN1C(=O)CC2CCCN2C1=O` (stereo not drawn), the GI50 in assay [1], in assay [2], in assay [3], in [4], in assay [5] and in [6] was > 100 µM (inactive) throughout. The GI50 in [7], in [8], in assay [9], in assay [10], in [11] and in assay [12] was > 100 µM (inactive) throughout. The GI50 in assay [13] was > 100 µM (inactive); in assay [14], > 100 µM (inactive); in assay [15], > 100 µM (inactive); in [16], 4.27 µM (inactive); in [17], > 100 µM (inactive); in [18], > 100 µM (inactive). Further, the GI50 in assay [19] is > 100 µM (inactive).

Consider `COc1cccc2c1C(=O)c1c(O)c3c(c(O)c1C2=O)C[C@@](O)(C(=O)CN1CCOCC1)C[C@@H]3OC1CC(N)C(O)C(C)O1` (stereo partly drawn), for which the GI50 in assay [1] was 5.52 µM (inactive); in assay [2], 2.82 µM (inactive); in [4], 4.09 µM (inactive); in assay [6] it was 5.73 µM (inactive); in [8] it was 2.48 µM (inactive); in assay [9], 2.43 µM (inactive). Besides, the GI50 is 0.446 µM (active) in assay [12]; 1.85 µM (inactive) in assay [13]; 5.07 µM (inactive) in assay [14]; 2.09 µM (inactive) in assay [15]; 5.3 µM (inactive) in [17]; 4.47 µM (inactive) in assay [18]. The GI50 in [19] is 10.4 µM (inactive).

Take `COc1ccc(/N=N/C(C(=O)c2ccccc2)C(=O)c2ccccc2)cc1`: the GI50 was 16.2 µM (inactive) in assay [2]; 24.7 µM (inactive) in [3]; 25.4 µM (inactive) in assay [4]; 44.7 µM (inactive) in assay [6]; 23.3 µM (inactive) in assay [8]; 21.3 µM (inactive) in assay [9]. The GI50 in assay [12] is 18.6 µM (inactive); in [13], 8.67 µM (inactive); in assay [14] it was 20.6 µM (inactive); in assay [15] it was 17.8 µM (inactive); in assay [16], 8 µM (inactive); in assay [17], 18.3 µM (inactive). For the same molecule, the GI50 in assay [18] is 22.4 µM (inactive); in [19] it was 21.3 µM (inactive).

As for `O=C1C2=C(C3=NCCc4c[nH]c1c43)c1c(cc(Br)c(O)c1Br)CCN2`, the GI50 in [1] was 14.5 µM (inactive); in [2] it was 2 µM (inactive); in assay [4] it was 13.5 µM (inactive); in [6], 5.55 µM (inactive); in assay [8], 25.3 µM (inactive); in assay [9], 18.6 µM (inactive). Besides, the GI50 was 9.27 µM (inactive) in assay [12]; 16.5 µM (inactive) in assay [13]; 16.3 µM (inactive) in assay [14]; 6.67 µM (inactive) in assay [15]; 2.56 µM (inactive) in assay [16]; 13.4 µM (inactive) in assay [17]. For the same molecule, the GI50 in assay [18] was 8.53 µM (inactive); in assay [19], 17.8 µM (inactive).

On to `CCCCCCCCCCOC1C(C(O)CNCCCN(C)C)OC2OC3(CCCCC3)OC21` (stereo not drawn), for which the GI50 in [1] is 3.31 µM (inactive); in [2], 1.82 µM (inactive); in [3] it was 2.81 µM (inactive); in [5], 1.8 µM (inactive); in assay [6] it was 2.57 µM (inactive); in assay [7], 3.35 µM (inactive). In addition, the GI50 in assay [8] is 1.75 µM (inactive); in assay [9] it was 3.32 µM (inactive); in assay [10] it was 1.96 µM (inactive); in [11], 2.75 µM (inactive); in assay [12], 1.97 µM (inactive); in assay [13] it was 18.5 µM (inactive). Moreover, the GI50 is 0.0491 µM (active) in assay [14]; 1.09 µM (active) in assay [15]; 1.71 µM (inactive) in [16]; 1.48 µM (inactive) in assay [17]; 2.39 µM (inactive) in assay [18]; 3.71 µM (inactive) in [19].

Regarding `CC1=CCC[C@]2(C)C1=CC(=O)O[C@H]2c1ccoc1`, the GI50 in [1], in assay [2], in assay [3], in assay [5], in [6] and in [7] was > 100 µM (inactive) each time. In addition, the GI50 in assay [8], in assay [9], in assay [10], in [11], in [12] and in [13] was > 100 µM (inactive) throughout. Besides, the GI50 in [14], in [15], in assay [16], in assay [17], in assay [18] and in assay [19] was > 100 µM (inactive) each time.

Regarding `Cc1cccc(C)c1N1C(=O)C(=O)C(c2nc3ccccc3s2)/C(=N/NC(=O)c2ccccc2O)C1=O` (stereo not drawn), the GI50 was 8.77 µM (inactive) in [2]; 6.65 µM (inactive) in assay [3]; 6.87 µM (inactive) in assay [4]; 24.6 µM (inactive) in [6]; 9.18 µM (inactive) in assay [8]; 11.7 µM (inactive) in assay [9]. In addition, the GI50 in [12] was 17.7 µM (inactive); in assay [13], 13.7 µM (inactive); in assay [14], 1.05 µM (active); in assay [15], 24.4 µM (inactive); in assay [16], 4.8 µM (inactive); in assay [17], 7.38 µM (inactive). Further, the results for the GI50 in [18] and in [19] were 21 µM (inactive) and 20.6 µM (inactive), respectively.

On to `Nc1ccc2c(=O)cc(-c3ccc(Br)s3)[nH]c2n1`, for which the GI50 in [1] is 2.6 µM (inactive); in assay [2], 1.42 µM (inactive); in assay [3], 7.16 µM (inactive); in [4], 2.16 µM (inactive); in [5], 16.8 µM (inactive); in assay [6], 3.39 µM (inactive). Besides, the GI50 in assay [7] is 3.93 µM (inactive); in assay [8] it was 4.86 µM (inactive); in assay [9], 5.5 µM (inactive); in assay [10] it was 0.323 µM (active); in assay [11] it was 4.16 µM (inactive); in [12], 4.16 µM (inactive). Moreover, the GI50 in assay [13] was 2.15 µM (inactive); in assay [14] it was 2.47 µM (inactive); in [15] it was 4.69 µM (inactive); in assay [16], 2.37 µM (inactive); in [17] it was 2.22 µM (inactive); in [18], 3.52 µM (inactive). The GI50 in assay [19] is 7.59 µM (inactive).

Consider `C=C1C(=O)[C@@]23CC[C@H]4[C@@](C)(CCC[C@@]4(C)C(=O)OC)[C@@H]2CC[C@]1(O)C3`, for which the GI50 in assay [1] is 1.37 µM (inactive); in assay [2], 1.54 µM (inactive); in [4], 1.76 µM (inactive); in [6], 2.82 µM (inactive); in assay [8], 20.2 µM (inactive); in assay [9], 3.1 µM (inactive). The GI50 in [12] is 3.58 µM (inactive); in assay [13] it was 3.3 µM (inactive); in [14] it was 2.37 µM (inactive); in [15], 0.953 µM (active); in assay [16], 0.2 µM (active); in assay [17], 1.57 µM (inactive). The values for the GI50 in assay [18] and in assay [19] were 1.47 µM (inactive) and 2.06 µM (inactive), respectively.

As a reminder, the GI50 is the concentration giving 50% growth inhibition.
